Laboratory results reported in ChEMBL document CHEMBL3217541, “Optimisation of aqueous solubility in a series of G protein coupled receptor 119 (GPR119) agonists” (Medchemcomm, 2013).
pEC50: −log10 of the molar value. ≈ marks a conversion by molar mass, not a printed value.

How the values were obtained:
[1] = molecular target: T1, Glucose-dependent insulinotropic receptor (Mus musculus, UniProt Q7TQP3); assay: Agonist activity at mouse GPR119 transfected in HEK293 cells assessed as cAMP accumulation after 45 mins incubation by HTRF assay; type: functional, cell-based
T1 sequence (Q7TQP3 whole entry): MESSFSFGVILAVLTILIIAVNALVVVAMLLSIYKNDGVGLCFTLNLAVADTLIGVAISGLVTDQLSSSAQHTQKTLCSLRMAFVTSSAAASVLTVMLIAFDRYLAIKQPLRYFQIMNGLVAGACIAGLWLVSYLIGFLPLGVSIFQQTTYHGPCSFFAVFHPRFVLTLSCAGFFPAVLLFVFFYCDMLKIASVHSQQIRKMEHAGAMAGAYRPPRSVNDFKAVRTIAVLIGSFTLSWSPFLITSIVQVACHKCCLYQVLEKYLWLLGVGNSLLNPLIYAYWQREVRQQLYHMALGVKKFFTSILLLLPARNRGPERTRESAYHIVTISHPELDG

[2] = molecular target: T2, Glucose-dependent insulinotropic receptor (Homo sapiens, UniProt Q8TDV5); assay: Agonist activity at human GPR119 transfected in HEK293 cells assessed as cAMP accumulation after 45 mins incubation by HTRF assay; type: functional, cell-based
T2 sequence (Q8TDV5 whole entry): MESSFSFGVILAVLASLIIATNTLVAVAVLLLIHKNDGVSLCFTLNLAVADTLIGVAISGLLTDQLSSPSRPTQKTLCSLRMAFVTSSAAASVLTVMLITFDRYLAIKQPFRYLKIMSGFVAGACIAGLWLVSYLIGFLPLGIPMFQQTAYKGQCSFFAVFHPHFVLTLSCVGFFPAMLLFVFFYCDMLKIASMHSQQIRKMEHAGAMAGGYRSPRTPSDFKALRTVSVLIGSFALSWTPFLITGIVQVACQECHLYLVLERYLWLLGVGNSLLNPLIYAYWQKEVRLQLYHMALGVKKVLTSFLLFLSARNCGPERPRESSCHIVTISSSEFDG

physchem [3] = conditions: aqueous phosphate buffer, pH 7.4
in vitro = conditions: human, liver microsomes
[4] = Chemical stability of the compound at pH 10 at 10 uM after 18 hrs incubation at 65 degC; type: physicochemical; conditions: buffer
[5] = Chemical stability of the compound at pH 8 at 10 uM after 18 hrs incubation at 65 degC; type: physicochemical; conditions: buffer
[6] = Chemical stability of the compound at pH 6 at 10 uM after 18 hrs incubation at 65 degC; type: physicochemical; conditions: buffer
[7] = Chemical stability of the compound at pH 4 at 10 uM after 18 hrs incubation at 65 degC; type: physicochemical; conditions: buffer
[8] = Chemical stability of the compound at pH 1 at 10 uM after 18 hrs incubation at 65 degC; type: physicochemical; conditions: buffer
physchem [9] = conditions: octanol/phosphate buffer, pH 7.4
[10] = Apparent permeability across basolateral to apical side of human Caco2 cells; type: ADME, cell-based; conditions: Caco-2
[11] = molecular target: Voltage-gated inwardly rectifying potassium channel KCNH2 (Homo sapiens, UniProt Q12809); assay: Inhibition of human ERG
Cytochrome P450 2D6 = Cytochrome P450 2D6 (Homo sapiens, UniProt P10635); assay: Inhibition of CYP2D6 (unknown origin); type: ADME
Cytochrome P450 3A4 = Cytochrome P450 3A4 (Homo sapiens, UniProt P08684); assay: Inhibition of CYP3A4 (unknown origin); type: ADME
Cytochrome P450 2C9 = Cytochrome P450 2C9 (Homo sapiens, UniProt P11712); assay: Inhibition of CYP2C9 (unknown origin); type: ADME
Cytochrome P450 2C19 = Cytochrome P450 2C19 (Homo sapiens, UniProt P33261); assay: Inhibition of CYP2C19 (unknown origin); type: ADME
Cytochrome P450 1A2 = molecular target: T3, Cytochrome P450 1A2 (Homo sapiens, UniProt P05177); assay: Inhibition of CYP1A2 (unknown origin); type: ADME
T3 sequence (P05177 whole entry): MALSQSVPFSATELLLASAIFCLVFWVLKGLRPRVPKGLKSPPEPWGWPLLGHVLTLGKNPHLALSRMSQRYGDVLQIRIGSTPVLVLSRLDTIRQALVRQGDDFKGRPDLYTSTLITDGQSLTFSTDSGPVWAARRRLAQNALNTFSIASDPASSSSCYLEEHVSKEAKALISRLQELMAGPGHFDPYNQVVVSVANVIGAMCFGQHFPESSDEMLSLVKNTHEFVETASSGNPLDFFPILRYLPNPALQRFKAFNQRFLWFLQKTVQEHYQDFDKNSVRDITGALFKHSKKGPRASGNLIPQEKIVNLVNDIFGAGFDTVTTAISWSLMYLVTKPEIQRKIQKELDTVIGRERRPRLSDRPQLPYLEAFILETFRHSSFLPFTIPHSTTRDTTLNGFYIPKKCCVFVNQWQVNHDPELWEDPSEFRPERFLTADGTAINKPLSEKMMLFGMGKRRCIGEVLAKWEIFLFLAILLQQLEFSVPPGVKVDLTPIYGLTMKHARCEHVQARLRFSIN

[12] = Apparent permeability across apical to basolateral side of human Caco2 cells; type: ADME, cell-based; conditions: Caco-2
[13] = Fraction unbound in mouse plasma; type: ADME, cell-free
[14] = Fraction unbound in rat plasma; type: ADME, cell-free

Cytochrome P450 2C9, sequence (P11712 whole entry): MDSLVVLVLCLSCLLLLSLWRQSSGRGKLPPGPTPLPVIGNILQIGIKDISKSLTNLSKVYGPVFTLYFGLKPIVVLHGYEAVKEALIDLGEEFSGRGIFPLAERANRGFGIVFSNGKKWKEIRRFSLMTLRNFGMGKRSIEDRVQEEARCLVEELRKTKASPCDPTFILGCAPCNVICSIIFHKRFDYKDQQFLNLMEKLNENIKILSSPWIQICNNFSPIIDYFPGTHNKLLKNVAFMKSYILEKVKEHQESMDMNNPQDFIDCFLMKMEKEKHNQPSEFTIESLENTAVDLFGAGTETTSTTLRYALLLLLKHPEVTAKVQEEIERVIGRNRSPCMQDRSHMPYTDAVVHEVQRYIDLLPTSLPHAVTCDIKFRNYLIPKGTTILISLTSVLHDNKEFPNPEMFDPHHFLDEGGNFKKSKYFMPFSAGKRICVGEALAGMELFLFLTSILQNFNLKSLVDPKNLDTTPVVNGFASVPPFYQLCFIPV
Voltage-gated inwardly rectifying potassium channel KCNH2, sequence (Q12809 whole entry): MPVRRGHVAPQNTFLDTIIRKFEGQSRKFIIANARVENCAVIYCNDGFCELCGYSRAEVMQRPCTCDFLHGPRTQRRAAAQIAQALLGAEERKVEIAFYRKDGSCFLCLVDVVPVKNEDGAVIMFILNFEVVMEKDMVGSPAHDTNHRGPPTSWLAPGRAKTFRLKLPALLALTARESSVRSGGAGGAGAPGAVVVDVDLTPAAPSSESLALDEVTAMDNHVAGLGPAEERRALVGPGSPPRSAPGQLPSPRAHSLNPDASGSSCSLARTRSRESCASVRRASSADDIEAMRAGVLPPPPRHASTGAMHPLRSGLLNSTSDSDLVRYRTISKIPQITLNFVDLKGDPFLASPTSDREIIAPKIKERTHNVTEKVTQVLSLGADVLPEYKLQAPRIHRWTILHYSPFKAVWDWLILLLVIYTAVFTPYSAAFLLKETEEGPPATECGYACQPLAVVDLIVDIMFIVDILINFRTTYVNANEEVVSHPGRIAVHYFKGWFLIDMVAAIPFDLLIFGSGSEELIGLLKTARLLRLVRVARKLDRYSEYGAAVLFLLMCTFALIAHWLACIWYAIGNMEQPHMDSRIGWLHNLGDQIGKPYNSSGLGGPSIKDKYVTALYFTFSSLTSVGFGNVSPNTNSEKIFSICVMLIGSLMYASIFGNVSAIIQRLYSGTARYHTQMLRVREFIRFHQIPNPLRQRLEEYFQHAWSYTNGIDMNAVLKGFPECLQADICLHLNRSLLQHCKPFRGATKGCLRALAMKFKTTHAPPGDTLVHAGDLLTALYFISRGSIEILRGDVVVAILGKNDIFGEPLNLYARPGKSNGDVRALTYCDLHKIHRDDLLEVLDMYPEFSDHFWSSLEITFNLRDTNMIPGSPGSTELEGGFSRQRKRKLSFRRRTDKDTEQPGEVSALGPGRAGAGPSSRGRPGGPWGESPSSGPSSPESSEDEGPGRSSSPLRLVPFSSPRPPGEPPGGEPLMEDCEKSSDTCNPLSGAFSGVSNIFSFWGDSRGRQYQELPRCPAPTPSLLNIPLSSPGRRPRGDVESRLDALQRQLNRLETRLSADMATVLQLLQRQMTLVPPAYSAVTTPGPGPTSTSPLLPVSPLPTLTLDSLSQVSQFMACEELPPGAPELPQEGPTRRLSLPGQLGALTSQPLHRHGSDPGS
Cytochrome P450 2C19, sequence (P33261 whole entry): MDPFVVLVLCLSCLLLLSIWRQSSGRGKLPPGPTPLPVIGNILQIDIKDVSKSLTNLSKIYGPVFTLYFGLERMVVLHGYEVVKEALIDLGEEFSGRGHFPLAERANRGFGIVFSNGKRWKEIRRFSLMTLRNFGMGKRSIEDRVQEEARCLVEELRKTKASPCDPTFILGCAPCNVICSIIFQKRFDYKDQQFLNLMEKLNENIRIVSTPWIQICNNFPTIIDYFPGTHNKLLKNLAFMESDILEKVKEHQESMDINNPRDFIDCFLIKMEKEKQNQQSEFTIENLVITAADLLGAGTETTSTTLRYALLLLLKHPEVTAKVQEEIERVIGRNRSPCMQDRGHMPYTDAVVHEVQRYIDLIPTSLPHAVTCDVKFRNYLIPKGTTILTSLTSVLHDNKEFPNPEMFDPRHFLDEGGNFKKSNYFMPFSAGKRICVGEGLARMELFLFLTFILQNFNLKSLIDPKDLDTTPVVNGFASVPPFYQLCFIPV
Cytochrome P450 2D6, sequence (P10635 whole entry): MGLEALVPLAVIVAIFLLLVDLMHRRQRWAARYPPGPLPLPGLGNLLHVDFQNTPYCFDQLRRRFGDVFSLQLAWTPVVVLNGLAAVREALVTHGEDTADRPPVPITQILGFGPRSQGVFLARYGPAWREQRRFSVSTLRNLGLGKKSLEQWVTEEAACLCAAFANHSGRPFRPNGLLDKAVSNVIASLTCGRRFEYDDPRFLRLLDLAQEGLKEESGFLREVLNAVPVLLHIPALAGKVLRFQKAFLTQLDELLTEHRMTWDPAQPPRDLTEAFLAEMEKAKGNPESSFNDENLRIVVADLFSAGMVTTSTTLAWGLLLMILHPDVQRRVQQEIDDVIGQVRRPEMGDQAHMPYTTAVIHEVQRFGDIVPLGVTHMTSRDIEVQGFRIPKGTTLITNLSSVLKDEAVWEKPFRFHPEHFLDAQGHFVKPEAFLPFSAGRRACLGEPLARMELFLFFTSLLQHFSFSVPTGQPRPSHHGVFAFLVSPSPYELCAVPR
Cytochrome P450 3A4, sequence (P08684 whole entry): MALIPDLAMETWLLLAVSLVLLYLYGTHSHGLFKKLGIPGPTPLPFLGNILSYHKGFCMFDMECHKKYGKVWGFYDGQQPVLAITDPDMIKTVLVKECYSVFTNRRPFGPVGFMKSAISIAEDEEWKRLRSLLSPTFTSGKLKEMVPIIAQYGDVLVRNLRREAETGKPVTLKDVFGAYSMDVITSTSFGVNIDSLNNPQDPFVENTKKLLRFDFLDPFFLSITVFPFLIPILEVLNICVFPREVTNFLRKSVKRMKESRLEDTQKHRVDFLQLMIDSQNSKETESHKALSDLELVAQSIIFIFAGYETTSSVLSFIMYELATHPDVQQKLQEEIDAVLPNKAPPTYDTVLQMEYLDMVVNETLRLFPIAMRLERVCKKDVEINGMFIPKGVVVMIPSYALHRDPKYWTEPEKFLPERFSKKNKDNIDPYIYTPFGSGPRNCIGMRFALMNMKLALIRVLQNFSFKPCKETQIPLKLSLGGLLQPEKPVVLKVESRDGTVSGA

Row | SMILES | pEC50 [1] | pEC50 [2] | solubility at 24 h (physchem [3]) | microsomal CLint (in vitro) | logD (physchem [9]) | other results
1 | C[C@@H]1CN(C(=O)OC2(C)COC2)CCN1c1ncc(OCc2ccncc2C#N)cn1 | 6.20 | 6.70 | > 860 µM | 23 µL/min/mg |  | 
2 | CC(C)(C)OC(=O)N1CCN(c2ncc(OCc3ccc(S(C)(=O)=O)cc3)cn2)CC1 |  |  | 0.03 µM (≈ 0.0135 µg/mL) |  |  | half-life at 10 µM [4]: < 0.144 h; half-life at 10 µM [5]: 2.64 h; half-life at 10 µM [6]: 2.88 h; half-life at 10 µM [7]: 1.44 h; half-life at 10 µM [8]: < 1.8 h
3 | C[C@@H]1CN(c2noc(C(C)(C)O)n2)CCN1c1ncc(OCc2ccncc2C#N)cn1 | 6.20 | 6.20 | 8 µM (≈ 3.49 µg/mL) | 14 µL/min/mg | 2.4 | 
4 | C[C@@H]1CN(c2nnc(C(F)(F)F)o2)CCN1c1ncc(OCc2ccncc2C#N)cn1 |  |  |  |  |  | half-life at 10 µM [4]: 13.4 h; half-life at 10 µM [5]: > 240 h; half-life at 10 µM [6]: > 240 h; half-life at 10 µM [7]: > 240 h; half-life at 10 µM [8]: 10.8 h
5 | C[C@@H]1CN(C(=O)OC2CCOCC2)CCN1c1ncc(OCc2ccncc2C#N)cn1 | < 5.10 | 6.20 | 110 µM (≈ 48.2 µg/mL) | 37 µL/min/mg | 2.2 | 
6 | C[C@@H]1CN(C(=O)OC2(C(F)(F)F)COC2)CCN1c1ncc(OCc2ccncc2C#N)cn1 | 6.80 | 7.70 | 110 µM (≈ 52.6 µg/mL) | 44 µL/min/mg | 2.5 | Papp B→A [10]: 9 ×10⁻⁶ cm/s; half-life at 10 µM [4]: 0.96 h; half-life at 10 µM [5]: > 240 h; half-life at 10 µM [6]: > 240 h; half-life at 10 µM [7]: > 240 h; half-life at 10 µM [8]: 9.84 h; INH [11]: 12 µM; INH (Cytochrome P450 2D6): > 25 µM; INH (Cytochrome P450 3A4): > 25 µM; INH (Cytochrome P450 2C9): > 25 µM; INH (Cytochrome P450 2C19): > 25 µM; INH (Cytochrome P450 1A2): > 25 µM; Papp A→B [12]: 16 ×10⁻⁶ cm/s; fraction unbound [13]: 0.081; fraction unbound [14]: 0.047
7 | C[C@@H]1CN(C(=O)OC2COC2)CCN1c1ncc(OCc2ccncc2C#N)cn1 |  |  | > 2200 µM | 5 µL/min/mg | 1.6 | 
8 | CC(C)C1(OC(=O)N2CCN(c3ncc(OCc4ccncc4C#N)cn3)[C@H](C)C2)COC1 | 6.30 | 6.70 |  | 308 µL/min/mg |  | 
9 | C[C@@H]1CN(C(=O)OC(C)(C)C)CCN1c1ncc(OCc2ccncc2C#N)cn1 |  |  |  | 43 µL/min/mg |  | 
10 | C[C@@H]1CN(c2noc(C3(C)COC3)n2)CCN1c1ncc(OCc2ccncc2C#N)cn1 | 7.00 | 7.20 | 59 µM (≈ 26.5 µg/mL) | 43 µL/min/mg | 3 | 
11 | CC(C)c1nc(N2CCN(c3ncc(OCc4ccncc4C#N)cn3)[C@H](C)C2)no1 |  |  | 6 µM (≈ 2.52 µg/mL) | 23 µL/min/mg |  | INH [11]: 10 µM; INH (Cytochrome P450 2D6): > 25 µM; INH (Cytochrome P450 3A4): > 25 µM; INH (Cytochrome P450 2C9): > 25 µM; INH (Cytochrome P450 2C19): > 25 µM; INH (Cytochrome P450 1A2): > 25 µM
12 | N#Cc1cnccc1COc1cnc(N2CCN(C(=O)OC3CCOC3)CC2)nc1 (racemic) |  |  | 180 µM (≈ 73.9 µg/mL) |  |  | 
13 | C[C@@H]1CN(C(=O)OC2(C(F)(F)F)CCOC2)CCN1c1ncc(OCc2ccncc2C#N)cn1 (some centres undefined) |  |  | 34 µM (≈ 16.7 µg/mL) | 107 µL/min/mg | 3.1 | 
14 | C[C@@H]1CN(c2noc(C3COCCO3)n2)CCN1c1ncc(OCc2ccncc2C#N)cn1 (some centres undefined) | 6.20 | 7.00 | 30 µM (≈ 13.9 µg/mL) | 26 µL/min/mg | 2.3 | 
